# Experimental data taken from patent US7776897B2, “Triazole derivative or salt thereof” (Astellas Pharma Inc., priority 2004, dated 2010).
# How the values were obtained:
# [1] = target: human recombinant 11β-HSD1 (Homo sapiens, UniProt P28845); test: Test for measuring human 11β-HSD1 inhibitory activity (HTRF cortisol detection); format: biochemical; conditions: human recombinant enzyme, 200 nM cortisone, 40 μM NADPH, pH 6.6, room temperature 1 hour; average of 3 wells
# Protocol: (§1) (1) Test for Measuring Human 11β-HSD1/11β-HSD2 Inhibitory Activity
# (§2) The procedure for measuring human 11β-HSD1/11β-HSD2 inhibitory activity is as follows. The enzymatic reaction and measurement were performed using a 384-well plate. The reaction was carried out by adding a test compound in various concentrations to a reaction solution containing a 10 mM phosphate buffer solution (pH 6.6), 200 nM cortisone, 40 μM reduced nicotinamide adenine dinucleotide phosphate (NADPH), and human recombinant 11β-HSD1 and then incubating the mixture at room temperature for 1 hour (10 μl/well). The test compound was dissolved in dimethyl sulfoxide (DMSO) to prepare a sample so that the DMSO concentration in the reaction solution became 1%. After the enzymatic reaction, an enzymatic inhibitory activity was measured by detecting cortisol using homogeneous time-resolved fluorescence (HTRF). XL-665-labeled cortisol containing 400 μM carbenoxolone and cryptate-labeled cortisol antibody (CIS Bio International) were added in each amount of 5 μl/well, followed by incubation at room temperature for 2 hours. Then, fluorescence intensity was measured using a fluorophotometer (product name: Discovery, PerkinElmer) and an enzymatic inhibitory activity was calculated based on two-wavelength fluorescence intensity ratio (665 nm/620 nm).
# (§3) The results of the measurement were calculated as an average of the values for 3 wells obtained under the same conditions.
# [2] = target: T1, human recombinant 11β-HSD2 (Homo sapiens, UniProt P80365); test: Test for measuring human 11β-HSD2 inhibitory activity (HTRF cortisol detection); format: biochemical; conditions: human recombinant enzyme, 200 nM cortisol, 200 μM NAD, pH 8.0, 37° C. 2 hours; average of 3 wells
# T1 sequence (P80365 1-405): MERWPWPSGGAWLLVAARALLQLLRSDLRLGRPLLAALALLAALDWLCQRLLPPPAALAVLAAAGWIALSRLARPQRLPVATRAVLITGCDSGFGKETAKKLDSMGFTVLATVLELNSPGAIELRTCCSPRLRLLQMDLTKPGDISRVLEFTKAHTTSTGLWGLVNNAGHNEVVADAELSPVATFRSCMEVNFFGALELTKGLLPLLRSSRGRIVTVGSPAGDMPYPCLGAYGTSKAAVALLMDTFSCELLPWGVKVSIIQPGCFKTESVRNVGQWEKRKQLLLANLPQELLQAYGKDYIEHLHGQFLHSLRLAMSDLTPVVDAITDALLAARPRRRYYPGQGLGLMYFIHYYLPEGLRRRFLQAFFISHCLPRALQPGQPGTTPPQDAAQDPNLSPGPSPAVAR
# Protocol: as §1, §2
# The measurement of 11β-HSD2 inhibitory activity was performed in the same manner as in the measurement of 11β-HSD1 inhibitory activity except for enzymatic reaction conditions. The enzymatic reaction was carried out by adding a test compound in various concentrations to a reaction solution containing a 40 mM tris-hydrochloride buffer solution (Tris-HCl) (pH 8.0), 200 nM cortisol, 200 μM nicotinamide adenine dinucleotide (NAD), and human recombinant 11β-HSD2 and then incubating the mixture at 37° C. for 2 hours (10 μl/well).
# as §3
# [3] = system: ob/ob mice; test: ob/ob mouse blood-glucose lowering test; format: in vivo; conditions: male ob/ob mice, 30 mg/kg bid orally for 9 days, measured 12 hours after final administration, non-fasting, n=6
# Protocol: (2) ob/ob Mouse Blood-Glucose Lowering Test
# A compound solution was prepared using 6% 2-hydroxypropyl-p-cyclodextrin as a solvent. Using 8 weeks-old male ob/ob mice (blood-glucose level of 300 mg or more), blood-glucose levels were measured under non-fasting conditions and then the mice were divided into groups so that the blood-glucose levels became even among the groups. The test compound was orally administered twice per day repeatedly for 9 days (30 mg/kg, bid) and a blood-sugar level was measured 12 hours after final administration (n=6). The blood-glucose level was measured by subjecting a collected blood to protein-removing treatment and then conducting colorimetric quantitative determination of a glucose level (mg/dL) in the supernatant.
# human recombinant 11β-HSD1, sequence (P28845 whole entry): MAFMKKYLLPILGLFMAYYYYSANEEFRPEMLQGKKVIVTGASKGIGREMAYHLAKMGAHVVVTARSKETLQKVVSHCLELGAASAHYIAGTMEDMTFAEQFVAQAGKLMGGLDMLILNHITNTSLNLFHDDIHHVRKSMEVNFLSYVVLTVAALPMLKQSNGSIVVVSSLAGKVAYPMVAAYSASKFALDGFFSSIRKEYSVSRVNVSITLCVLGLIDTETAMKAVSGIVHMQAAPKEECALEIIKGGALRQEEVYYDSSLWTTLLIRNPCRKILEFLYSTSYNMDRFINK
SMILES,IC50 [1] [µM],IC50 [2] [µM],blood-glucose lowering action [3] [%]
c1csc(C2(c3nnc4n3CCCCC4)CCCC2)c1 [Example 60],0.013,> 3,–
Clc1ccc(C2(c3nnc4n3CCCCC4)CCCC2)s1 [Example 62],0.0053,> 3,–
c1csc(C2(c3nnc4n3CCCCCC4)CCCC2)c1 [Example 68],0.0044,> 1,32
CC(C)(c1cccs1)c1nnc2n1CCCCCC2 [Example 100],0.0066,> 1,–
CN(C1(c2nnc(-c3ccccc3Cl)n2C)CCCC1)S(=O)(=O)c1ccccc1 [Example 115],0.015,–,–

# Second part, led by results:
IC50 [1] [µM],IC50 [2] [µM],SMILES,blood-glucose lowering action [3] [%]
0.018,> 3,Cn1cccc1C(C)(C)c1nnc(-c2ccccc2Cl)n1C [Example 158],–
0.06,–,Cn1c(-c2ccccc2Cl)nnc1C(C)(C)NC(=O)c1ccccc1 [Example 174],–
